# Patent US20230123334A1, “AMINO LIPID COMPOUND, PREPARATION METHOD THEREFOR, AND APPLICATION THEREOF” (SHENZHEN SHENXIN BIOTECHNOLOGY CO., LTD., priority 2020, published 2023)
# System: HEK293 cells
# Assay: Preliminary screening as mRNA vectors, EGFP mRNA transfection of HEK293 cells
# Type: cell-based
# Conditions: EGFP mRNA 50 ng per well, 96-well plates; percentage of GFP fluorescent cells relative to total number of cells (Hoechst)
# In short: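 HEK293 cells in DMEM plus 10% FBS transfected in 96-well format with 50 ng EGFP mRNA per well; Lipofectamine2000 served as positive control. Read-out is the percentage of GFP-fluorescent cells among total cells, counted by Hoechst nuclear stain.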
row,SMILES,Absolute mRNA transfection efficiency in HEK293 cells [%]
1,CCCCCCCCCCSc1nc(NCCCCCCCCC)nc(NCCN(CC)CC)n1 [Compound D7S10N9],1.6
2,CCCCCCCCCCCNc1nc(NCCN(CC)CC)nc(SCCCCCCCCCC)n1 [Compound D7S10N11],3.1
3,CCCCCCCCCCCCNc1nc(NCCN(CC)CC)nc(SCCCCCCCCCC)n1 [Compound D7S10N12],10.6
4,CCCCCCCCCCCCCNc1nc(NCCN(CC)CC)nc(SCCCCCCCCCC)n1 [Compound D7S10N13],13.7
5,CCCCCCCCCCCCCCCNc1nc(NCCN(CC)CC)nc(SCCCCCCCCCC)n1 [Compound D7S10N15],2.0
6,CCCCCCCCCCCCCCCCNc1nc(NCCN(CC)CC)nc(SCCCCCCCCCC)n1 [Compound D7S10N16],19.3
7,CCCCCCCCCCCCCCCCCCNc1nc(NCCN(CC)CC)nc(SCCCCCCCCCC)n1 [Compound D7S10N18],25.9
8,CCCCCCCCCCCSc1nc(NCCCCCC)nc(NCCN(CC)CC)n1 [Compound D7S11N6],4.3
9,CCCCCCCCCCCSc1nc(NCCCCCCC)nc(NCCN(CC)CC)n1 [Compound D7S11N7],11.8
10,CCCCCCCCCCCSc1nc(NCCCCCCCC)nc(NCCN(CC)CC)n1 [Compound D7S11N8],13.4
11,CCCCCCCCCCCSc1nc(NCCCCCCCCC)nc(NCCN(CC)CC)n1 [Compound D7S11N9],5.0
12,CCCCCCCCCCCNc1nc(NCCN(CC)CC)nc(SCCCCCCCCCCC)n1 [Compound D7S11N11],35.0
13,CCCCCCCCCCCCNc1nc(NCCN(CC)CC)nc(SCCCCCCCCCCC)n1 [Compound D7S11N12],7.8
14,CCCCCCCCCCCCCNc1nc(NCCN(CC)CC)nc(SCCCCCCCCCCC)n1 [Compound D7S11N13],5.8
15,CCCCCCCCCCCCCCCNc1nc(NCCN(CC)CC)nc(SCCCCCCCCCCC)n1 [Compound D7S11N15],6.5
16,CCCCCCCCCCCCCCCCNc1nc(NCCN(CC)CC)nc(SCCCCCCCCCCC)n1 [Compound D7S11N16],4.4
17,CCCCCCCCCCCCCCCCCCNc1nc(NCCN(CC)CC)nc(SCCCCCCCCCCC)n1 [Compound D7S11N18],10.8
18,CCCCCCCCCCCCSc1nc(NCCCCCC)nc(NCCN(CC)CC)n1 [Compound D7S12N6],2.1
19,CCCCCCCCCCCCSc1nc(NCCCCCCC)nc(NCCN(CC)CC)n1 [Compound D7S12N7],13.1
20,CCCCCCCCCCCCSc1nc(NCCCCCCCC)nc(NCCN(CC)CC)n1 [Compound D7S12N8],3.0
21,CCCCCCCCCCCCSc1nc(NCCCCCCCCC)nc(NCCN(CC)CC)n1 [Compound D7S12N9],7.4
22,CCCCCCCCCCCCSc1nc(NCCCCCCCCCCC)nc(NCCN(CC)CC)n1 [Compound D7S12N11],4.4

row,SMILES,Absolute mRNA transfection efficiency in HEK293 cells [%]
1,CCCCCCCCCCCCNc1nc(NCCN(CC)CC)nc(SCCCCCCCCCCCC)n1 [Compound D7S12N12],3.7
2,CCCCCCCCCCCCCNc1nc(NCCN(CC)CC)nc(SCCCCCCCCCCCC)n1 [Compound D7S12N13],4.9
3,CCCCCCCCCCCCCCCNc1nc(NCCN(CC)CC)nc(SCCCCCCCCCCCC)n1 [Compound D7S12N15],1.3
4,CCCCCCCCCCCCCCCCNc1nc(NCCN(CC)CC)nc(SCCCCCCCCCCCC)n1 [Compound D7S12N16],6.3
5,CCCCCCCCCCCCCCCCCCNc1nc(NCCN(CC)CC)nc(SCCCCCCCCCCCC)n1 [Compound D7S12N18],1.1
6,CCCCCCCCCCCCCCSc1nc(NCCCCCC)nc(NCCN(CC)CC)n1 [Compound D7S14N6],15.7
7,CCCCCCCCCCCCCCSc1nc(NCCCCCCC)nc(NCCN(CC)CC)n1 [Compound D7S14N7],36.3
8,CCCCCCCCCCCCCCSc1nc(NCCCCCCCC)nc(NCCN(CC)CC)n1 [Compound D7S14N8],10.8
9,CCCCCCCCCCCCCCSc1nc(NCCCCCCCCC)nc(NCCN(CC)CC)n1 [Compound D7S14N9],29.8
10,CCCCCCCCCCCCCCSc1nc(NCCCCCCCCCCC)nc(NCCN(CC)CC)n1 [Compound D7S14N11],17.0
11,CCCCCCCCCCCCCCSc1nc(NCCCCCCCCCCCC)nc(NCCN(CC)CC)n1 [Compound D7S14N12],6.6
12,CCCCCCCCCCCCCCSc1nc(NCCCCCCCCCCCCC)nc(NCCN(CC)CC)n1 [Compound D7S14N13],11.7
13,CCCCCCCCCCCCCCCNc1nc(NCCN(CC)CC)nc(SCCCCCCCCCCCCCC)n1 [Compound D7S14N15],0.8
14,CCCCCCCCCCCCCCCCNc1nc(NCCN(CC)CC)nc(SCCCCCCCCCCCCCC)n1 [Compound D7S14N16],2.7
15,CCCCCCCCCCCCCCCCCCNc1nc(NCCN(CC)CC)nc(SCCCCCCCCCCCCCC)n1 [Compound D7S14N18],0.4
16,CCCCCCCCCCCCCCCSc1nc(NCCCCCC)nc(NCCN(CC)CC)n1 [Compound D7S15N6],2.7
17,CCCCCCCCCCCCCCCSc1nc(NCCCCCCC)nc(NCCN(CC)CC)n1 [Compound D7S15N7],27.8
18,CCCCCCCCCCCCCCCSc1nc(NCCCCCCCC)nc(NCCN(CC)CC)n1 [Compound D7S15N8],18.0
19,CCCCCCCCCCCCCCCSc1nc(NCCCCCCCCC)nc(NCCN(CC)CC)n1 [Compound D7S15N9],9.4
20,CCCCCCCCCCCCCCCSc1nc(NCCCCCCCCCCC)nc(NCCN(CC)CC)n1 [Compound D7S15N11],5.0
21,CCCCCCCCCCCCCCCSc1nc(NCCCCCCCCCCCC)nc(NCCN(CC)CC)n1 [Compound D7S15N12],4.7
22,CCCCCCCCCCCCCCCSc1nc(NCCCCCCCCCCCCC)nc(NCCN(CC)CC)n1 [Compound D7S15N13],5.2

row,SMILES,Absolute mRNA transfection efficiency in HEK293 cells [%]
1,CCCCCCCCCCCCCCCNc1nc(NCCN(CC)CC)nc(SCCCCCCCCCCCCCCC)n1 [Compound D7S15N15],1.8
2,CCCCCCCCCCCCCCCCNc1nc(NCCN(CC)CC)nc(SCCCCCCCCCCCCCCC)n1 [Compound D7S15N16],0.5
3,CCCCCCCCCCCCCCCCCCNc1nc(NCCN(CC)CC)nc(SCCCCCCCCCCCCCCC)n1 [Compound D7S15N18],0.8
4,CCCCCCCCCCCCCCCCSc1nc(NCCCCCC)nc(NCCN(CC)CC)n1 [Compound D7S16N6],16.5
5,CCCCCCCCCCCCCCCCSc1nc(NCCCCCCC)nc(NCCN(CC)CC)n1 [Compound D7S16N7],7.8
6,CCCCCCCCCCCCCCCCSc1nc(NCCCCCCCC)nc(NCCN(CC)CC)n1 [Compound D7S16N8],6.5
7,CCCCCCCCCCCCCCCCSc1nc(NCCCCCCCCC)nc(NCCN(CC)CC)n1 [Compound D7S16N9],9.0
8,CCCCCCCCCCCCCCCCSc1nc(NCCCCCCCCCCC)nc(NCCN(CC)CC)n1 [Compound D7S16N11],8.3
9,CCCCCCCCCCCCCCCCSc1nc(NCCCCCCCCCCCC)nc(NCCN(CC)CC)n1 [Compound D7S16N12],1.3
10,CCCCCCCCCCCCCCCCSc1nc(NCCCCCCCCCCCCC)nc(NCCN(CC)CC)n1 [Compound D7S16N13],2.9
11,CCCCCCCCCCCCCCCCSc1nc(NCCCCCCCCCCCCCCC)nc(NCCN(CC)CC)n1 [Compound D7S16N15],1.1
12,CCCCCCCCCCCCCCCCNc1nc(NCCN(CC)CC)nc(SCCCCCCCCCCCCCCCC)n1 [Compound D7S16N16],1.6
13,CCCCCCCCCCCCCCCCCCNc1nc(NCCN(CC)CC)nc(SCCCCCCCCCCCCCCCC)n1 [Compound D7S16N18],1.5
14,CCCCCCCCCCCCCCCCCCSc1nc(NCCCCCC)nc(NCCN(CC)CC)n1 [Compound D7S18N6],19.5
15,CCCCCCCCCCCCCCCCCCSc1nc(NCCCCCCC)nc(NCCN(CC)CC)n1 [Compound D7S18N7],6.5
16,CCCCCCCCCCCCCCCCCCSc1nc(NCCCCCCCC)nc(NCCN(CC)CC)n1 [Compound D7S18N8],9.8
17,CCCCCCCCCCCCCCCCCCSc1nc(NCCCCCCCCC)nc(NCCN(CC)CC)n1 [Compound D7S18N9],1.9
18,CCCCCCCCCCCCCCCCCCSc1nc(NCCCCCCCCCCC)nc(NCCN(CC)CC)n1 [Compound D7S18N11],10.7
19,CCCCCCCCCCCCCCCCCCSc1nc(NCCCCCCCCCCCC)nc(NCCN(CC)CC)n1 [Compound D7S18N12],0.3
20,CCCCCCCCCCCCCCCCCCSc1nc(NCCCCCCCCCCCCC)nc(NCCN(CC)CC)n1 [Compound D7S18N13],1.5
21,CCCCCCCCCCCCCCCCCCSc1nc(NCCCCCCCCCCCCCCC)nc(NCCN(CC)CC)n1 [Compound D7S18N15],0.3
22,CCCCCCCCCCCCCCCCCCSc1nc(NCCCCCCCCCCCCCCCC)nc(NCCN(CC)CC)n1 [Compound D7S18N16],0.3
